Patent publication US8716284B2, “Adamantyl diamide derivatives and uses of same” (H. Lundbeck A/S, priority 2008, dated 2014)
Values belong to the molecule of their own block, whether it stands above or below them.

Biological target: T1, rat metabotropic glutamate receptor 5 (mGluR5) (Rattus norvegicus, UniProt P31424)
T1 construct: expressed in transfected cells; host or cells: HEK 293
Test: Calcium mobilization assay (FLIPR) for negative or positive allosteric activity, HEK 293 cells
Assay type: cell-based
Settings: HEK293, negative allosteric modulation, inhibition of EC80 glutamate response; read-out: FLIPR maximum inhibition
Method in brief: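 Peak Fluo-4 calcium signal over 3 min at room temperature, minus basal, fitted by Hill equation, in stable rat mGluR5 HEK 293 cells (HBSS/HEPES pH 7.4, BSA, probenecid). Inhibition scored against EC80 glutamate, potentiation against EC20 glutamate, glutamate given with compound.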

T1 sequence (P31424 21-1171 isoform P31424-2 limits assumed): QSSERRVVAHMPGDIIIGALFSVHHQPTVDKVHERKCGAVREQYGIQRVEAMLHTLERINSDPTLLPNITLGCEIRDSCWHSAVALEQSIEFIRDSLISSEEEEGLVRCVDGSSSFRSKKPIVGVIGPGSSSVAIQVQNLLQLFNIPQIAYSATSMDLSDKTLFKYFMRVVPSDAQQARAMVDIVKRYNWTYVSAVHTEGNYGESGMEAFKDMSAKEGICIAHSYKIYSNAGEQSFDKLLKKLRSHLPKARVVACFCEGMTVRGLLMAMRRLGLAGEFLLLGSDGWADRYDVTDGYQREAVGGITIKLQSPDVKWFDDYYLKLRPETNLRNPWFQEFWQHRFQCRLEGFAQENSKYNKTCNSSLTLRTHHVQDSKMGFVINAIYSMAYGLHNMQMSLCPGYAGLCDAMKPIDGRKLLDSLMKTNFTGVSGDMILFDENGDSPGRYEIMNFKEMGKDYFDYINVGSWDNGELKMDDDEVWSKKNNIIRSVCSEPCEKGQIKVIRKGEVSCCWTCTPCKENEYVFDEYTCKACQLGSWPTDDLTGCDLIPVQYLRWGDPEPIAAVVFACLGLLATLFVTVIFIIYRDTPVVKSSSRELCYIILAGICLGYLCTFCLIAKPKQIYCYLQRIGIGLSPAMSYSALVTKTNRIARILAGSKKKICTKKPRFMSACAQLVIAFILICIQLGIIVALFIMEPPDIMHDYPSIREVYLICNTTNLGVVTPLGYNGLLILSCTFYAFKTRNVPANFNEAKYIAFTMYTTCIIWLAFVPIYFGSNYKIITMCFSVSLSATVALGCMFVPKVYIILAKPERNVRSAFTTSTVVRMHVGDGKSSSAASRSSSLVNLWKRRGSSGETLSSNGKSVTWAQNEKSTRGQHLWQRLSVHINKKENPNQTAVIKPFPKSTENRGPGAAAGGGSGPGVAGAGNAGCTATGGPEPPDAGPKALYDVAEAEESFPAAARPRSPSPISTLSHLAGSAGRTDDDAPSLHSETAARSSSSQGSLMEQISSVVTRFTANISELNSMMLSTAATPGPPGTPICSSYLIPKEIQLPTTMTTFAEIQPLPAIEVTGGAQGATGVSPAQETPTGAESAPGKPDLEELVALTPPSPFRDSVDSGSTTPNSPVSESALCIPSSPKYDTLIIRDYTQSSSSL

SMILES: Cc1cccc(C(=O)NC23CC4CC(CC(NC(=O)c5ccc6ocnc6c5)(C4)C2)C3)n1 [Example 122, Benzoxazole-5-carboxylic acid {3-[(6-methyl-pyridine-2-carbonyl)-amino]-adamantan-1-yl}-amide]
Emax: 70 to 99%

SMILES: Cc1cccc(C(=O)NC23CC4CC(CC(NC(=O)c5ccc6c(c5)OCCO6)(C4)C2)C3)n1 [Example 124, 6-Methyl-pyridine-2-carboxylic acid {3-[(2,3-dihydro-benzo[1,4]dioxine-6-carbonyl)-amino]-adamantan-1-yl}-amide]
Emax: 70 to 99%

SMILES: Cc1cccc(C(=O)NC23CC4CC(CC(NC(=O)c5cc(F)ccn5)(C4)C2)C3)n1 [Example 125, 6-Methyl-pyridine-2-carboxylic acid {3-[(4-fluoropyridine-2-carbonyl)-amino]-adamantan-1-yl}-amide]
Emax: 70 to 99%

SMILES: Cc1cccc(C(=O)NC23CC4CC(C2)CC(NC(=O)c2cccc(C(N)=O)n2)(C4)C3)n1 [Example 133, Pyridine-2,6-dicarboxylic acid 2-amide 6-({3-[(6-methyl-pyridine-2-carbonyl)-amino]-adamantan-1-yl}-amide)]
Emax: 70 to 99%

SMILES: Cc1cccc(C(=O)NC23CC4CC(C2)CC(NC(=O)c2cccc(F)n2)(C4)C3)n1 [Example 135, 6-Methyl-pyridine-2-carboxylic acid {3-[(6-fluoro-pyridine-2-carbonyl)-amino]-adamantan-1-yl}-amide]
Emax: 70 to 99%

SMILES: Cc1cccc(C(=O)NC23CC4CC(C2)CC(NC(=O)c2csc(C)n2)(C4)C3)n1 [Example 136, 6-Methyl-pyridine-2-carboxylic acid {3-[(2-methyl-thiazole-4-carbonyl)-amino]-adamantan-1-yl}-amide]
Emax: 70 to 99%

SMILES: Cc1cccc(C(=O)NC23CC4CC(CC(NC(=O)c5ccc(F)cn5)(C4)C2)C3)n1 [Example 137, 5-Fluoro-pyridine-2-carboxylic acid {3-[(6-methyl-pyridine-2-carbonyl)-amino]-adamantan-1-yl}-amide]
Emax: 70 to 99%

SMILES: Cc1cccc(C(=O)NC23CC4CC(CC(NC(=O)c5cc(Br)ccn5)(C4)C2)C3)n1 [Example 138, 6-Methyl-pyridine-2-carboxylic acid {3-[(4-bromo-pyridine-2-carbonyl)-amino]-adamantan-1-yl}-amide]
Emax: 70 to 99%

SMILES: Cc1cccc(C(=O)NC23CC4CC(C2)CC(NC(=O)c2ccnc(C(F)(F)F)n2)(C4)C3)n1 [Example 140, 2-Trifluoromethyl-pyrimidine-4-carboxylic acid {3-[(6-methyl-pyridine-2-carbonyl)-amino]-adamantan-1-yl}-amide]
Emax: 70 to 99%

SMILES: Cc1cccc(C(=O)NC23CC4CC(C2)CC(NC(=O)c2nccc(C)n2)(C4)C3)n1 [Example 141, 4-Methyl-pyrimidine-2-carboxylic acid {3-[(6-methyl-pyridine-2-carbonyl)-amino]-adamantan-1-yl}-amide]
Emax: 70 to 99%

SMILES: CC(=O)c1cccc(C(=O)NC23CC4CC(CC(NC(=O)c5cccc(C)n5)(C4)C2)C3)n1 [Example 142, 6-Methyl-pyridine-2-carboxylic acid {3-[(6-acetyl-pyridine-2-carbonyl)-amino]-adamantan-1-yl}-amide]
Emax: 70 to 99%

SMILES: Cc1cccc(C(=O)NC23CC4CC(C2)CC(NC(=O)c2cccc(C(C)(C)O)n2)(C4)C3)n1 [Example 144, 6-Methyl-pyridine-2-carboxylic acid (3-{[6-(1-hydroxy-1-methyl-ethyl)-pyridine-2-carbonyl]-amino}-adamantan-1-yl)-amide]
Emax: 70 to 99%

SMILES: CCOc1cccc(C(=O)NC23CC4CC(C2)CC(NC(=O)c2cncc(C)n2)(C4)C3)c1 [Example 147, 6-Methyl-pyrazine-2-carboxylic acid [3-(3-ethoxy-benzoylamino)-adamantan-1-yl]-amide]
Emax: 70 to 99%

SMILES: Cc1cncc(C(=O)NC23CC4CC(C2)CC(NC(=O)c2cc(F)ccc2F)(C4)C3)n1 [Example 148, 6-Methyl-pyrazine-2-carboxylic acid [3-(2,5-difluoro-benzoylamino)-adamantan-1-yl]-amide]
Emax: 70 to 99%

SMILES: Cc1cncc(C(=O)NC23CC4CC(CC(NC(=O)c5ccc(F)c(Cl)c5)(C4)C2)C3)n1 [Example 149, 6-Methyl-pyrazine-2-carboxylic acid [3-(3-chloro-4-fluoro-benzoylamino)-adamantan-1-yl]-amide]
Emax: 70 to 99%

SMILES: Cc1cncc(C(=O)NC23CC4CC(C2)CC(NC(=O)c2cccc(C(F)(F)F)c2F)(C4)C3)n1 [Example 150, 6-Methyl-pyrazine-2-carboxylic acid [3-(2-fluoro-3-trifluoromethyl-benzoylamino)-adamantan-1-yl]-amide]
Emax: 70 to 99%

SMILES: COc1cccc(C(=O)NC23CC4CC(CC(NC(=O)c5cncc(C)n5)(C4)C2)C3)n1 [Example 151, 6-Methyl-pyrazine-2-carboxylic acid {3-[(6-methoxy-pyridine-2-carbonyl)-amino]-adamantan-1-yl}-amide]
Emax: 70 to 99%

SMILES: Cc1cncc(C(=O)NC23CC4CC(C2)CC(NC(=O)c2cccc(Cl)c2F)(C4)C3)n1 [Example 152, 6-Methyl-pyrazine-2-carboxylic acid [3-(3-chloro-2-fluoro-benzoylamino)-adamantan-1-yl]-amide]
Emax: 70 to 99%

SMILES: COc1ccnc(C(=O)NC23CC4CC(C2)CC(NC(=O)c2cncc(C)n2)(C4)C3)c1 [Example 153, 6-Methyl-pyrazine-2-carboxylic acid {3-[(4-methoxy-pyridine-2-carbonyl)-amino]-adamantan-1-yl}-amide]
Emax: 70 to 99%

SMILES: COc1cc(C(=O)NC23CC4CC(C2)CC(NC(=O)c2cncc(C)n2)(C4)C3)ccn1 [Example 154, 6-Methyl-pyrazine-2-carboxylic acid {3-[(2-methoxy-pyridine-4-carbonyl)-amino]-adamantan-1-yl}-amide]
Emax: 70 to 99%

SMILES: CCOc1cc(C(=O)NC23CC4CC(C2)CC(NC(=O)c2cncc(C)n2)(C4)C3)ccn1 [Example 155, 6-Methyl-pyrazine-2-carboxylic acid {3-[(2-ethoxy-pyridine-4-carbonyl)-amino]-adamantan-1-yl}-amide]
Emax: 70 to 99%

SMILES: Cc1cc(C(=O)NC23CC4CC(C2)CC(NC(=O)c2cncc(C)n2)(C4)C3)ccn1 [Example 156, 6-Methyl-pyrazine-2-carboxylic acid {3-[(2-methyl-pyridine-4-carbonyl)-amino]-adamantan-1-yl}-amide]
Emax: 70 to 99%

The next lines start with the values.

Emax: 70 to 99%
SMILES: Cc1cccc(C(=O)NC23CC4CC(C2)CC(NC(=O)c2cc(C)nc(C)n2)(C4)C3)n1 [Example 118, 2,6-Dimethyl-pyrimidine-4-carboxylic acid {3-[(6-methyl-pyridine-2-carbonyl)-amino]-adamantan-1-yl}-amide]

Emax: 70 to 99%
SMILES: Cc1cccc(C(=O)NC23CC4CC(C2)CC(NC(=O)c2ncccn2)(C4)C3)n1 [Example 121, Pyrimidine-2-carboxylic acid {3-[(6-methyl-pyridine-2-carbonyl)-amino]-adamantan-1-yl}-amide]

Emax: 70 to 99%
SMILES: Cc1cccc(C(=O)NC23CC4CC(C2)CC(NC(=O)c2ccc5cnccc5n2)(C4)C3)n1 [Example 123, [1,6]Naphthyridine-2-carboxylic acid {3-[(6-methyl-pyridine-2-carbonyl)-amino]-adamantan-1-yl}-amide]

Emax: 70 to 99%
SMILES: Cc1cccc(C(=O)NC23CC4CC(C2)CC(NC(=O)c2cc(C)n(C)n2)(C4)C3)n1 [Example 127, 6-Methyl-pyridine-2-carboxylic acid {3-[(1,5-dimethyl-1H-pyrazole-3-carbonyl)-amino]-adamantan-1-yl}-amide]

Emax: 70 to 99%
SMILES: Cc1cccc(C(=O)NC23CC4CC(C2)CC(NC(=O)c2ncccc2F)(C4)C3)n1 [Example 129, 6-Methyl-pyridine-2-carboxylic acid {3-[(3-fluoro-pyridine-2-carbonyl)-amino]-adamantan-1-yl}-amide]

Emax: 70 to 99%
SMILES: Cc1ccc(C(=O)NC23CC4CC(C2)CC(NC(=O)c2cccc(C)n2)(C4)C3)nc1 [Example 130, 6-Methyl-pyridine-2-carboxylic acid {3-[(5-methyl-pyridine-2-carbonyl)-amino]-adamantan-1-yl}-amide]

Emax: 70 to 99%
SMILES: Cc1cccc(C(=O)NC23CC4CC(CC(NC(=O)c5cc(O)ccn5)(C4)C2)C3)n1 [Example 132, 6-Methyl-pyridine-2-carboxylic acid {3-[(4-hydroxy-pyridine-2-carbonyl)-amino]-adamantan-1-yl}-amide]

Emax: 70 to 99%
SMILES: Cc1cccc(C(=O)NC23CC4CC(C2)CC(NC(=O)c2cccc(CO)n2)(C4)C3)n1 [Example 134, 6-Methyl-pyridine-2-carboxylic acid {3-[(6-hydroxymethylpyridine-2-carbonyl)-amino]-adamantan-1-yl}-amide]

Emax: 70 to 99%
SMILES: COC(=O)c1cccc(C(=O)NC23CC4CC(CC(NC(=O)c5cccc(C)n5)(C4)C2)C3)n1 [Example 139, 6-{3-[(6-Methyl-pyridine-2-carbonyl)-amino]-adamantan-1-ylcarbamoyl}-pyridine-2-carboxylic acid methyl ester]

Emax: 70 to 99%
SMILES: Cc1cccc(C(=O)NC23CC4CC(C2)CC(NC(=O)c2cccc(C(C)O)n2)(C4)C3)n1 (stereo not shown) [Example 143, 6-Methyl-pyridine-2-carboxylic acid {3-[(6-(1-hydroxy-ethyl)-pyridine-2-carbonyl)-amino]-adamantan-1-yl}-amide]

Emax: 70 to 99%
SMILES: COc1cccc(C(=O)NC23CC4CC(C2)CC(NC(=O)c2cncc(C)n2)(C4)C3)c1 [Example 146, 6-Methyl-pyrazine-2-carboxylic acid [3-(3-methoxy-benzoylamino)-adamantan-1-yl]-amide]

Emax: 70 to 99%
SMILES: Cc1cncc(C(=O)NC23CC4CC(C2)CC(NC(=O)c2csc(C)n2)(C4)C3)n1 [Example 157, 6-Methyl-pyrazine-2-carboxylic acid {3-[(2-methyl-thiazole-4-carbonyl)-amino]-adamantan-1-yl}-amide]
